Source: patent publication US20260347338A1, “PYRIMIDINE/PYRIDINE DERIVATIVES OR SALTS THEREOF AND PHARMACEUTICAL COMPOSITIONS COMPRISING THE SAME” (YUHAN CORPORATION, priority 2023, published 2026)
Counter-ions that a name gives are not always drawn.

Molecular target: T1, human recombinant HPK1 (Homo sapiens, UniProt Q92918)
T1 construct: purchased BPS Bioscience
Assay: Inhibitory activity against human recombinant HPK1 (TR-FRET)
Assay type: biochemical
Conditions: ULight-p70S6K peptide, ATP at Km, room temperature, 1 hour, 0.32 to 1000 nM compound
Outline: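 Recombinant human HPK1 with ULight-p70S6K peptide and ATP at Km, 1 h at room temperature in HEPES pH 7.4 buffer with Mg2+, Mn2+, EGTA, DTT; compounds 0.32–1000 nM final. EDTA stop, Eu-anti-phosphopeptide TR-FRET read (665 nm); IC50 from % inhibition versus DMSO, binned A–D at 10, 50, 100 nM.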

T1 sequence (Q92918 whole entry): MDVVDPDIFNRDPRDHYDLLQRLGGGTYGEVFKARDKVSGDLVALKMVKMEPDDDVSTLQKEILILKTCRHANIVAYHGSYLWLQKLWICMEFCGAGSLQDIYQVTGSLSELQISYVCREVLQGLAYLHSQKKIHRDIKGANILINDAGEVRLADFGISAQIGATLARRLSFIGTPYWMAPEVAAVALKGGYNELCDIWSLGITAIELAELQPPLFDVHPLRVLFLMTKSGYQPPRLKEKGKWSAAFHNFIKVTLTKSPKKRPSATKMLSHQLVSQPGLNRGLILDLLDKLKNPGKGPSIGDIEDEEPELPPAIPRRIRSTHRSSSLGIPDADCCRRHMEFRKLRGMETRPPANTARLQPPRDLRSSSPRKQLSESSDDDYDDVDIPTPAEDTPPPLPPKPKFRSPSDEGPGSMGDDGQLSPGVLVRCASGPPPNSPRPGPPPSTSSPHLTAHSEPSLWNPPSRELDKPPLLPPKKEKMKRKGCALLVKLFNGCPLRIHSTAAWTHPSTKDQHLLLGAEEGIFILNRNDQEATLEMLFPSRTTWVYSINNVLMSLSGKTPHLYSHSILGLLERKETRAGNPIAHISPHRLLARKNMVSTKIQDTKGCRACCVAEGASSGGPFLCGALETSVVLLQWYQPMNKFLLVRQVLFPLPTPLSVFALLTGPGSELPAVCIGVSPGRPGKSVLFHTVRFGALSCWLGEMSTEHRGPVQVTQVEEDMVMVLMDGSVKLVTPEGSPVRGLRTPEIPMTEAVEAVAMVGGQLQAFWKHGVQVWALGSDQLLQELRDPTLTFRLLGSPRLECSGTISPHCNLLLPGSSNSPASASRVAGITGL

Question: `COc1cccc(F)c1-c1nc(Nc2cc(N3CCC[C@H](O)C3)c(-c3cnn(CC(F)F)c3)cn2)ccc1N` [Example 179, (3S)-1-(2-((5-amino-6-(2-fluoro-6-methoxyphenyl)pyridin-2-yl)amino)-5-(1-(2,2-difluoroethyl)-1H-pyrazol-4-yl)pyridin-4-yl)piperidin-3-ol] was tested. Which IC50 did it give?
Answer: ≤ 10 nM

Question: With `COc1cccc(F)c1-c1nccc(Nc2cc(N3CCC[C@H](O)C3)c(-c3cnn(C4CC(C)(C)OC(C)(C)C4)c3)cn2)n1` [Example 264, (S)-1-(2-((2-(2-fluoro-6-methoxyphenyl)pyrimidin-4-yl)amino)-5-(1-(2,2,6,6-tetramethyltetrahydro-2H-pyran-4-yl)-1H-pyrazol-4-yl)pyridin-4-yl)piperidin-3-ol] as the compound, how does the IC50 read?
Answer: ≤ 10 nM

Question: With `COc1cccc(F)c1-c1nccc(Nc2cc(N3CCC[C@H](N)C3)c(-c3cnc4c(c3)OCC(=O)N4)cn2)n1` [Example 275, (S)-7-(4-(3-aminopiperidin-1-yl)-6-((2-(2-fluoro-6-methoxyphenyl)pyrimidin-4-yl)amino)pyridin-3-yl)-2H-pyrido[3,2-b][1,4]oxazin-3(4H)-one hydrochloride] as the compound, how does the IC50 read?
Answer: ≤ 10 nM

Question: With `COc1cccc(F)c1-c1nccc(Nc2cc(N3CCC(CCN(C)C)CC3)c(-c3cnn(C4CCOCC4)c3)cn2)n1` [Example 64, N-(4-(4-(2-(dimethylamino)ethyl)piperidin-1-yl)-5-(1-(tetrahydro-2H-pyran-4-yl)-1H-pyrazol-4-yl)pyridin-2-yl)-2-(2-fluoro-6-methoxyphenyl)pyrimidin-4-amine] as the compound, how does the IC50 read?
Answer: ≤ 10 nM

Question: `COc1cccc(F)c1-c1nccc(Nc2cc(N3CCC[C@H](O)C3)c(-c3ccc(CN4CCC(N)CC4)nc3)cn2)n1` [Example 55, (S)-1-(6′-((4-aminopiperidin-1-yl)methyl)-6-((2-(2-fluoro-6-methoxyphenyl)pyrimidin-4-yl)amino)-[3,3′-bipyridin]-4-yl)piperidin-3-ol hydrochloride] was tested. Which IC50 did it give?
Answer: 10 to 50 nM

Question: With `COc1cc(F)cc(F)c1-c1nccc(Nc2cc(N3CC[C@@H](C)[C@H](N)C3)c(-c3cnn(C(F)F)c3)cn2)n1` [Example 211, N-(4-((3S,4R)-3-amino-4-methylpiperidin-1-yl)-5-(1-(difluoromethyl)-1H-pyrazol-4-yl)pyridin-2-yl)-2-(2,4-difluoro-6-methoxyphenyl)pyrimidin-4-amine hydrochloride] as the compound, how does the IC50 read?
Answer: ≤ 10 nM

Question: “2-(2-fluoro-6-methoxyphenyl)-6-((4-((S)-3-hydroxypiperidin-1-yl)-5-(1-(1-methylpiperidin-4-yl)-1H-pyrazol-4-yl)pyrimidin-2-yl)amino)nicotinonitrile [Example 63]” was tested. Which IC50 did it give?
Answer: 50 to 100 nM

Question: `COc1cccc(F)c1-c1nccc(Nc2cc(N3CC[C@@H](N)C3)c(-c3cnn(C4CCOCC4)c3)cn2)n1` [Example 96, (R)-N-(4-(3-aminopyrrolidin-1-yl)-5-(1-(tetrahydro-2H-pyran-4-yl)-1H-pyrazol-4-yl)pyridin-2-yl)-2-(2-fluoro-6-methoxyphenyl)pyrimidin-4-amine hydrochloride] was tested. Which IC50 did it give?
Answer: ≤ 10 nM

Question: Which IC50 does the source give for `COc1cc(F)cc(F)c1-c1nccc(Nc2cc(N3CCC[C@](C)(N)C3)c(-c3cnn(C(F)F)c3)cn2)n1` [Example 212, (S)-N-(4-(3-amino-3-methylpiperidin-1-yl)-5-(1-(difluoromethyl)-1H-pyrazol-4-yl)pyridin-2-yl)-2-(2,4-difluoro-6-methoxyphenyl)pyrimidin-4-amine hydrochloride] here?
Answer: ≤ 10 nM

Question: How did the IC50 turn out when `COc1cccc(F)c1-c1nccc(Nc2cc(N3CCC(C(F)(F)F)CC3)c(-c3cnn(C4CCOCC4)c3)cn2)n1` [Example 87, 2-(2-fluoro-6-methoxyphenyl)-N-(5-(1-(tetrahydro-2H-pyran-4-yl)-1H-pyrazol-4-yl)-4-(4-(trifluoromethyl)piperidin-1-yl)pyridin-2-yl)pyrimidin-4-amine] was run?
Answer: ≤ 10 nM

Question: `COc1cccc(F)c1-c1nccc(Nc2cc(N3CCN(C)CC3)c(-c3cnn(C4CCOCC4)c3)cn2)n1` [Example 68, 2-(2-fluoro-6-methoxyphenyl)-N-(4-(4-methylpiperazin-1-yl)-5-(1-(tetrahydro-2H-pyran-4-yl)-1H-pyrazol-4-yl)pyridin-2-yl)pyrimidin-4-amine] was tested. Which IC50 did it give?
Answer: 10 to 50 nM

Question: How did the IC50 turn out when `N[C@H]1CCCN(c2cc(Nc3cccc(N4CCOC4=O)n3)ncc2-c2ccc(N3CCOCC3)nc2)C1` [Example 138, (S)-3-(6-((4-(3-aminopiperidin-1-yl)-6′-morpholino-[3,3′-bipyridin]-6-yl)amino)pyridin-2-yl)oxazolidin-2-one hydrochloride] was run?
Answer: 50 to 100 nM

Question: `COc1cccc(F)c1-c1nccc(Nc2cc(N3CCC4(CCNCC4)C3)c(-c3cnn(C4CCOCC4)c3)cn2)n1` [Example 93, N-(4-(2,8-diazaspiro[4.5]decan-2-yl)-5-(1-(tetrahydro-2H-pyran-4-yl)-1H-pyrazol-4-yl)pyridin-2-yl)-2-(2-fluoro-6-methoxyphenyl)pyrimidin-4-amine hydrochloride] was tested. Which IC50 did it give?
Answer: 10 to 50 nM

Question: How did the IC50 turn out when `COc1cccc(F)c1-c1nccc(Nc2cc(N3CCC[C@H](N)C3)c(-c3ccc(N4CCOCC4)c(C)c3)cn2)n1` [Example 287, (S)-N-(4-(3-aminopiperidin-1-yl)-5-(3-methyl-4-morpholinophenyl)pyridin-2-yl)-2-(2-fluoro-6-methoxyphenyl)pyrimidin-4-amine hydrochloride] was run?
Answer: ≤ 10 nM

Question: Which IC50 does the source give for `COc1cccc(F)c1-c1nccc(Nc2cc(N3CCC[C@H](N)C3)c(-c3cnn([C@H]4CCOC4)c3)cn2)n1` [Example 298, N-(4-((S)-3-aminopiperidin-1-yl)-5-(1-((S)-tetrahydrofuran-3-yl)-1H-pyrazol-4-yl)pyridin-2-yl)-2-(2-fluoro-6-methoxyphenyl)pyrimidin-4-amine hydrochloride] here?
Answer: ≤ 10 nM

Question: `COc1cc(C(=O)N2CC[C@H](F)C2)cc(F)c1-c1nccc(Nc2cc(N3CCC[C@H](O)C3)c(-c3cnn(C(F)F)c3)cn2)n1` [Example 232, (4-(4-((5-(1-(difluoromethyl)-1H-pyrazol-4-yl)-4-((S)-3-hydroxypiperidin-1-yl)pyridin-2-yl)amino)pyrimidin-2-yl)-3-fluoro-5-methoxyphenyl)((S)-3-fluoropyrrolidin-1-yl)methanone] was tested. Which IC50 did it give?
Answer: ≤ 10 nM

Question: Which IC50 does the source give for `COc1cccc(F)c1-c1nccc(Nc2cc(N3CCC[C@H](N)C3)c(-c3cnn([C@@H]4CCOC4)c3)cn2)n1` [Example 299, N-(4-((S)-3-aminopiperidin-1-yl)-5-(1-((R)-tetrahydrofuran-3-yl)-1H-pyrazol-4-yl)pyridin-2-yl)-2-(2-fluoro-6-methoxyphenyl)pyrimidin-4-amine hydrochloride] here?
Answer: ≤ 10 nM

Question: For `COc1cccc(F)c1-c1nccc(Nc2cc(N3CCC[C@H](N)C3)c(-c3ccc(C(=O)N4CCN(C)CC4)cc3)cn2)n1` [Example 176, (S)-(4-(4-(3-aminopiperidin-1-yl)-6-((2-(2-fluoro-6-methoxyphenyl)pyrimidin-4-yl)amino)pyridin-3-yl)phenyl)(4-methylpiperazin-1-yl)methanone hydrochloride], which IC50 is on record?
Answer: ≤ 10 nM

Question: Which IC50 does the source give for `COc1cc(F)cc(F)c1-c1nccc(Nc2cc(N3CCC[C@H](N)C3)c(C#CCCO)cn2)n1` [Example 314, (S)-4-(4-(3-aminopiperidin-1-yl)-6-((2-(2,4-difluoro-6-methoxyphenyl)pyrimidin-4-yl)amino)pyridin-3-yl)but-3-yn-1-ol] here?
Answer: ≤ 10 nM

Question: With `COc1cccc(F)c1-c1nccc(Nc2cc(N3CCC[C@H](O)C3)c(-c3ccc(CN4CCC(O)CC4)nc3)cn2)n1` [Example 33, (S)-1-(6-((2-(2-fluoro-6-methoxyphenyl)pyrimidin-4-yl)amino)-6′-((4-hydroxypiperidin-1-yl)methyl)-[3,3′-bipyridin]-4-yl)piperidin-3-ol] as the compound, how does the IC50 read?
Answer: 10 to 50 nM

Question: `COc1cc(F)cc(F)c1-c1nccc(Nc2cc(N3CCC[C@H](N)C3)c(C#CC3(O)CCOCC3)cn2)n1` [Example 312, (S)-4-((4-(3-aminopiperidin-1-yl)-6-((2-(2,4-difluoro-6-methoxyphenyl)pyrimidin-4-yl)amino)pyridin-3-yl)ethynyl)tetrahydro-2H-pyran-4-ol] was tested. Which IC50 did it give?
Answer: ≤ 10 nM

Question: How did the IC50 turn out when `CNC[C@H]1CCCN(c2cc(Nc3ccnc(-c4c(F)cccc4OC)n3)ncc2-c2cnn(C(F)F)c2)C1` [Example 267, (R)-N-(5-(1-(difluoromethyl)-1H-pyrazol-4-yl)-4-(3-((methylamino)methyl)piperidin-1-yl)pyridin-2-yl)-2-(2-fluoro-6-methoxyphenyl)pyrimidin-4-amine hydrochloride] was run?
Answer: ≤ 10 nM

Question: `COc1cccc(F)c1-c1nccc(Nc2cc(N3CCC[C@H](N)C3)c(-c3ccc(NC(C)=O)cc3)cn2)n1` [Example 279, (S)-N-(4-(4-(3-aminopiperidin-1-yl)-6-((2-(2-fluoro-6-methoxyphenyl)pyrimidin-4-yl)amino)pyridin-3-yl)phenyl)acetamide hydrochloride] was tested. Which IC50 did it give?
Answer: ≤ 10 nM

Question: `CN[C@H]1CCN(c2cc(Nc3ccnc(-c4c(F)cccc4OC)n3)ncc2-c2cnn(C3CCOCC3)c2)C1` [Example 124, (S)-2-(2-fluoro-6-methoxyphenyl)-N-(4-(3-(methylamino)pyrrolidin-1-yl)-5-(1-(tetrahydro-2H-pyran-4-yl)-1H-pyrazol-4-yl)pyridin-2-yl)pyrimidin-4-amine] was tested. Which IC50 did it give?
Answer: ≤ 10 nM

Question: How did the IC50 turn out when `COc1cccc(F)c1-c1nccc(Nc2cc(N3CCC[C@H](N)C3)c(-c3cccc(C(C)=O)c3)cn2)n1` [Example 291, (S)-1-(3-(4-(3-aminopiperidin-1-yl)-6-((2-(2-fluoro-6-methoxyphenyl)pyrimidin-4-yl)amino)pyridin-3-yl)phenyl)ethan-1-one hydrochloride] was run?
Answer: ≤ 10 nM

Question: How did the IC50 turn out when `COc1cccc(F)c1-c1nc(Nc2cc(N3CCC[C@H](O)C3)c(C#CC3CCOCC3)cn2)ccc1C(N)=O` [Example 140, 2-(2-fluoro-6-methoxyphenyl)-6-((4-((S)-3-hydroxypiperidin-1-yl)-5-((tetrahydro-2H-pyran-4-yl)ethynyl)pyridin-2-yl)amino)nicotinamide] was run?
Answer: ≤ 10 nM
